The half-life is the time needed for the level to fall by half in the phase considered. Read a low half-life as fast loss. One may read the AUC(0-t) as the area under the concentration-time curve up to a stated or last time point. The low end stands for less exposure, the high end for more exposure. As a reminder, the IC50 is the concentration at which inhibition is half-maximal. By bioavailability is commonly meant dose-corrected exposure relative to a reference, in per cent. The low end stands for little systemic uptake, the high end for much systemic uptake. A word on the clearance: it is the rate of elimination divided by the concentration. A higher clearance goes with a high capacity for elimination.

In brackets after ≈: the same amount, converted by molar mass. Some results are limits rather than exact numbers.

Consider two molecules from ChEMBL document CHEMBL5154936, “Scaffold Hopping Strategy to Identify Prostanoid EP4 Receptor Antagonists for Cancer Immunotherapy” (J Med Chem, 2022).

The nature of data set [1]: Toxicity in BALB/c mouse allografted with mouse CT26 cells assessed as change in body weight at 75 mg/kg, po administered once a day measured after 14 days. The following applies: in vivo, 336 h, time 14 day. The format is organism-based.
The nature of data set [2]: Half life in BALB/c mouse at 5 mg/kg, po measured upto 24 hrs by LC-MS/MS analysis. The data set is classed as ADME, organism-based. The conditions noted are these: in vivo.
Data set [3] can be described thus: AUC (0 to 24 hrs) in BALB/c mouse at 1 mg/kg, iv measured upto 24 hrs by LC-MS/MS analysis. The data set is classed as ADME, organism-based. Further details: dose 1 mg/kg, time < 24 hrs, route iv. The following applies: in vivo.
The nature of data set [4]: Toxicity in BALB/c mouse allografted with mouse CT26 cells assessed as change in body weight at 75 mg/kg, po administered once a day for 14 days in presence of anti-PD-1 antibody. The data set is classed as organism-based. The following applies: in vivo, 336 h, time 14 day.
Data set [5] in a line: Metabolic stability in mouse liver microsomes assessed as parent compound remaining at 10 uM measured after 60 mins. The format is ADME, Microsome. The following applies: read-out: Stability. Background: Liver microsomes are vesicles of endoplasmic reticulum, rich in cytochrome P450 enzymes.
Data set [6] can be described thus: Kinetic solubility of compound in simulated gastric fluid at pH 1.2 measured after 24 hrs by HPLC analysis. The data set is classed as physicochemical. The following applies: read-out: Kinetic_solubility.
The test system of data set [7] is CT26. Put plainly: Antitumor activity against mouse CT26 cells allografted in BALB/c mouse assessed as median survival period at 75 mg/kg, po administered once a day for 14 days by Kaplan-Meier method (reference value: 15 days). The format is functional. The conditions noted are these: time 14 day.
Data set [8] has as its system CT26. Nature of the data set: Antitumor activity against mouse CT26 cells allografted in BALB/c mouse assessed as median survival period at 75 mg/kg, po administered once a day for 14 days in presence of anti-PD-1 antibody by Kaplan-Meier method (reference value: 15 days). The format is functional. The following applies: time 14 day.
Data set [9] concerns the target Prostaglandin E2 receptor EP2 subtype (Homo sapiens, UniProt P43116). Put plainly: Antagonist activity at human EP2 receptor transfected in CHO/Galpha16 cells preincubated for 15 mins followed by PGE2 addition by calcium flux assay. The format is functional, cell-based. For orientation: Calcium assays in cells follow changes in intracellular calcium, usually with a dye or a luminescent sensor.

Data set [10] can be described thus: Oral bioavailability in BALB/c mouse at 5 mg/kg measured upto 24 hrs by LC-MS/MS analysis. The data set is classed as ADME, organism-based. The following applies: in vivo.
The target of data set [11] is T1, Prostaglandin E2 receptor EP3 subtype (Homo sapiens, UniProt P43115).
T1 sequence (P43115 whole entry): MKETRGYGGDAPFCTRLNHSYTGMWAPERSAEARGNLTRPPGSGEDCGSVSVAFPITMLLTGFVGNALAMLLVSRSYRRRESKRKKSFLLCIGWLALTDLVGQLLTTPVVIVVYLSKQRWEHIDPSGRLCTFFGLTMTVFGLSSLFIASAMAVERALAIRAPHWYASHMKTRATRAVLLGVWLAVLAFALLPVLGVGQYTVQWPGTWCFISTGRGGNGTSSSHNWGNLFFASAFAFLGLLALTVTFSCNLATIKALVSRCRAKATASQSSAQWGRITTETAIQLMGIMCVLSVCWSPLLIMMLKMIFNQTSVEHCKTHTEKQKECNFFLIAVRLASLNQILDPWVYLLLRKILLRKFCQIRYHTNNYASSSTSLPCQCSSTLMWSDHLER
Put plainly: Antagonist activity at human EP3 receptor transfected in CHO/Galpha16 cells preincubated for 15 mins followed by PGE2 addition by calcium flux assay. The data set is classed as functional, cell-based.

Data set [12] can be described thus: Clearance in BALB/c mouse at 1 mg/kg, iv measured upto 24 hrs by LC-MS/MS analysis. The format is ADME, organism-based. The following applies: in vivo.
Data set [13] has as its target Prostaglandin E2 receptor EP4 subtype (Mus musculus, UniProt P32240). Put plainly: Antagonist activity at mouse EP4 receptor transfected in CHO/Galpha16 cells preincubated for 15 mins followed by PGE2 addition by calcium flux assay. The format is functional, cell-based.
Data set [14] in a line: Metabolic stability in mouse liver microsomes assessed as intrinsic clearance. The format is ADME, Microsome. The following applies: read-out: CLH.
Data set [15] in a line: Half life in BALB/c mouse at 1 mg/kg, iv measured upto 24 hrs by LC-MS/MS analysis. The data set is classed as ADME, organism-based. The following applies: in vivo.
A further data set has as its system Panc02. Put plainly: Cytotoxicity against mouse Panc02 cells assessed as reduction in cell viability incubated for 72 hrs by CCK-8 assay. The following applies: Panc02, 72 h. In general terms: Formazan colour is commonly taken as a measure of viable cells.
For data set [16], the system named is CT26. Put plainly: Cytotoxicity against mouse CT26 cells assessed as reduction in cell viability incubated for 72 hrs by CCK-8 assay. The conditions noted are these: CT26, 72 h.
In data set [17] the target is Prostaglandin E2 receptor EP4 subtype (Homo sapiens, UniProt P35408). Put plainly: Antagonist activity at human EP4 receptor transfected in CHO/Galpha16 cells preincubated for 15 mins followed by PGE2 addition by calcium flux assay. The data set is classed as functional, cell-based.
Chain of Prostaglandin E2 receptor EP4 subtype (Homo sapiens, UniProt P35408) (P35408 whole entry): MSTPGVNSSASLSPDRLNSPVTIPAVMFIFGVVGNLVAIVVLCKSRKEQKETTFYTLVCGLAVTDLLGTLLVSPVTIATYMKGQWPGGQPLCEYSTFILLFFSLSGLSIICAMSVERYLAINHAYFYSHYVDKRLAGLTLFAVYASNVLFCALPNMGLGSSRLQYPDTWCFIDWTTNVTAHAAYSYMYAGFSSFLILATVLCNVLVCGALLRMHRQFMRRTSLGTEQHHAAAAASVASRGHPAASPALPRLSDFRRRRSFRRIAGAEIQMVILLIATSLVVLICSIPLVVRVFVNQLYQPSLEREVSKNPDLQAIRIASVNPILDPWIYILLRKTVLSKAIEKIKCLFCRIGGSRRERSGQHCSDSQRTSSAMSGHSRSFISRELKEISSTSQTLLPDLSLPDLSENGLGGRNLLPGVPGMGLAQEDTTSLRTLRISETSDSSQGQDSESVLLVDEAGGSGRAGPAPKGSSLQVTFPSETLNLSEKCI
The next data set deals with EMT6. Nature of the data set: Cytotoxicity against mouse EMT6 cells assessed as reduction in cell viability incubated for 72 hrs by CCK-8 assay. The conditions noted are these: EMT6, 72 h.
For another data set, the system named is 3LL cell line. Nature of the data set: Cytotoxicity against mouse 3LL cells assessed as reduction in cell viability incubated for 72 hrs by CCK-8 assay.
Data set [18] in a line: Cytotoxicity against HEK293 cells assessed as reduction in cell viability incubated for 72 hrs by CCK-8 assay. The format is toxicity, cell-based. The following applies: human.

Chain of Prostaglandin E2 receptor EP4 subtype (Mus musculus, UniProt P32240) (P32240 whole entry): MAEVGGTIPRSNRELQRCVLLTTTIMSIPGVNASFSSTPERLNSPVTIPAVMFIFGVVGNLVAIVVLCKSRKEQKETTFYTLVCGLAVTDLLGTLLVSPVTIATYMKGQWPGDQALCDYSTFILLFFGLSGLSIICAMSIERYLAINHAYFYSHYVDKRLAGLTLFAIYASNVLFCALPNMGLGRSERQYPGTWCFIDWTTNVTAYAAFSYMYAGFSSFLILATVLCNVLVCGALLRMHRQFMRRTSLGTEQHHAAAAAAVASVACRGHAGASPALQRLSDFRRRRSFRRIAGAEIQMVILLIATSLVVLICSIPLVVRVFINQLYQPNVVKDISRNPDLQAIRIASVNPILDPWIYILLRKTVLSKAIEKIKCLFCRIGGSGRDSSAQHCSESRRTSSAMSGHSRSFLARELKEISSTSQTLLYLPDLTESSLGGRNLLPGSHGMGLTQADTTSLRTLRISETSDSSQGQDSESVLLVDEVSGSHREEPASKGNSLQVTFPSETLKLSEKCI
Chain of Prostaglandin E2 receptor EP2 subtype (P43116 whole entry): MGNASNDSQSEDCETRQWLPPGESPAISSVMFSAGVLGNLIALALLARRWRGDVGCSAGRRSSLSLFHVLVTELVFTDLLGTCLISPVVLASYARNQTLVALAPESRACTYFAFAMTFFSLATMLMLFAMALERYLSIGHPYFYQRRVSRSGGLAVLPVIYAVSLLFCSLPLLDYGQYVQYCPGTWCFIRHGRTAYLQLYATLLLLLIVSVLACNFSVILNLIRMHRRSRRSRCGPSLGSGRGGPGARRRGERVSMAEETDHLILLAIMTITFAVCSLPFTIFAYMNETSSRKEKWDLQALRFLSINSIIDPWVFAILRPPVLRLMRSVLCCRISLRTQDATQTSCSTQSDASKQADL

As to `O=C(O)c1ccc(CNC(=O)c2c(Cc3ccc(F)cc3)sc3c2CCOC3)cc1`, the Activity entry in [1] and in [4] was “Non-Toxic” throughout. In addition, the half-life in data set [2] is 6.2 h; in data set [15] it was 3.2 h. Further, the AUC(0-t) at 24 h in [3] was determined as 684 ng·h/mL. Besides, the remaining at 1 h, 10 µM in [5] stood at 92.1%. The solubility kinetic at 24 h in data set [6] was 2.97 µM (≈ 1.26 µg/mL). The MST with CT26 [7] is 26 days; in the data set with CT26 [8] it was 41 days. Besides, the figures for the IC50 in data set [9], in data set [11] and in data set [13] were more than 10 µM, more than 10 µM and 0.0243 µM, respectively. In [10], this molecule returned a bioavailability of 61.4%. In addition, in data set [12], the clearance is 22.7 mL/min/kg. The microsomal CLint in data set [14] is less than 9.6 µL/min/mg.

Consider `C[C@H](NC(=O)c1c(Cc2cccc(C(F)(F)F)c2)sc2c1CCOC2)c1ccc(C(=O)O)cc1`, for which the IC50 is more than 100 µM with Panc02; more than 100 µM in the data set with CT26 [16]; 0.0017 µM in data set [17]; more than 100 µM with EMT6; more than 100 µM with 3LL cell line; more than 10 µM in data set [9]. Besides, the values for the IC50 in data set [11] and in data set [13] were more than 10 µM and 0.0028 µM, respectively. Moreover, the half-life in data set [2] was 3.5 h; in [15], 3.4 h. Besides, in data set [3], the AUC(0-t) at 24 h amounted to 642 ng·h/mL. Also, the remaining at 1 h, 10 µM in [5] was found to be 90.2%. Further, the solubility kinetic at 24 h in data set [6] is less than 1 µM. The bioavailability in data set [10] turned out to be 52.3%. In data set [12], the clearance is 24.6 mL/min/kg. In addition, the IC50 at 72 h in [18] was more than 100 µM. In data set [14], the microsomal CLint was less than 9.6 µL/min/mg.
